Experimental findings from paper PMC4340712, “Delineating the Biosynthesis of Gentamicin X2, the Common Precursor of the Gentamicin C Antibiotic Complex” (Chemistry & Biology, 2015) are described below.

One series concerns the target T1, GenS2 (Micromonospora echinospora, UniProt Q70KD4).
T1 construct: gene gtmD; full length, N-terminal His6 tag (pET28a), initiator Met lost, tag kept; E. coli BL21(DE3)
Description: LC-ESI-HRMS of […]″-deamination. Conditions: 2-oxoglutarate 1 mM as amino acceptor, Tris-HCl pH 7.5, 30°C; reverse reaction; GenS2 alone. The series is classed as biochemical.

Another series addresses T2, GenD2 (Micromonospora echinospora, UniProt Q70KD1).
T2 construct: gene gtmC; full length, N-terminal His6 tag (pET28a), initiator Met lost, tag kept; E. coli BL21(DE3); 38,533 Da (calc. 38,539)
In words: coupled reverse reaction from kanamycin B, LC-ESI-HRMS. The series is classed as biochemical. The conditions noted are these: NADH or NADPH 2.5 mM; ketone generated in situ by GenS2 with 2-oxoglutarate; Tris-HCl pH 7.5, 30°C.

Substrate in series [1]: NC[C@H]1O[C@H](O[C@H]2[C@H](O)[C@@H](O[C@H]3O[C@H](CO)[C@@H](O)[C@H](N)[C@H]3O)[C@H](N)C[C@@H]2N)[C@H](N)[C@@H](O)[C@@H]1O
In words: SAM-dependent N-methylation kinetics (details in supplement). The conditions noted are these: co-substrate SAM; 3″-N-methylation. The series is classed as biochemical, Micromonospora echinospora.

The term Km denotes the concentration of substrate that gives half-maximal velocity. A word on the kcat: it is the maximal rate divided by the concentration of active sites.

T1 sequence (Q70KD4 2-418): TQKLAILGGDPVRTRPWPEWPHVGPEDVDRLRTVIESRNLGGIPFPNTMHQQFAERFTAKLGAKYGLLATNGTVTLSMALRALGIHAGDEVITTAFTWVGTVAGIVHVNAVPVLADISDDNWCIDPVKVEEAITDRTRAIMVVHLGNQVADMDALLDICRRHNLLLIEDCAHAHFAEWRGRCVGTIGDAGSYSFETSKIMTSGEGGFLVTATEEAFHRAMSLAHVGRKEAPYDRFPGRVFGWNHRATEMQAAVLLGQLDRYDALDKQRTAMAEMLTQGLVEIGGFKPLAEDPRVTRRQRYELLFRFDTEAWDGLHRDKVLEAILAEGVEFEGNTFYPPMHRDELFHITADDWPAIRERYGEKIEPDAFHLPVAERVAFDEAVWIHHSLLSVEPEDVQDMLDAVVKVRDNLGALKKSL
T2 sequence (Q70KD1 entry or part of it): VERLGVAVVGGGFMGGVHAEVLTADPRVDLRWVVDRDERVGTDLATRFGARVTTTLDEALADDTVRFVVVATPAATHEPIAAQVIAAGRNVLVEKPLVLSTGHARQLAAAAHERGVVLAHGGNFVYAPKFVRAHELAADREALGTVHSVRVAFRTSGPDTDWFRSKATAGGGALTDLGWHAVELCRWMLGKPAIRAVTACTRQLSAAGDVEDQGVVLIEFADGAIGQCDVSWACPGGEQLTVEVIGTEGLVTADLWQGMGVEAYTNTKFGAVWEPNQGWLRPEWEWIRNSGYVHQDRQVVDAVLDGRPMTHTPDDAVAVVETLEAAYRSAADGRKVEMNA

As to `NC[C@H]1O[C@H](O[C@H]2[C@H](O)[C@@H](O[C@H]3O[C@H](CO)[C@@H](O)[C@H](N)[C@H]3O)[C@H](N)C[C@@H]2N)[C@H](N)[C@@H](O)[C@@H]1O` [compound 11, kanamycin B], at GenS2, the “LC-ESI-HRMS of 3′′-deamination” value is “LC-ESI-HRMS analysis showed that GenS2 catalyzed low-level deamination of both compounds”.
As to `NC[C@H]1O[C@H](O[C@H]2[C@H](O)[C@@H](O[C@H]3O[C@H](CO)[C@@H](O)[C@H](N)[C@H]3O)[C@H](N)C[C@@H]2N)[C@H](N)C[C@@H]1O` [compound 12, tobramycin], at GenS2, the “LC-ESI-HRMS of 3′′-deamination” value is “LC-ESI-HRMS analysis showed that GenS2 catalyzed low-level deamination of both compounds”.
`NC[C@H]1O[C@H](O[C@H]2[C@H](O)[C@@H](O[C@H]3O[C@H](CO)[C@@H](O)C(=O)[C@H]3O)[C@H](N)C[C@@H]2N)[C@H](N)[C@@H](O)[C@@H]1O` [compound 13, 3″-deamino-3″-oxo-kanamycin B]: the “coupled reverse reaction from kanamycin B, LC-ESI-HRMS” value on GenD2 is “in the presence of GenS2 and GenD2 (and either NADH or NADPH) essentially quantitative yields”.

B1: GenN (Micromonospora echinospora) (protein)
chain: IVGGSTIQPERVDAAALRQLGDAMRKVVGSADPTPLADLLSGTPVDPDELTREVGADGRQALLDSGMAVDDGTTFSSPLRGHQLHGVVVLSDPDVEEEVQHRWYVDPLWEADLLIRLMLRRGGARALDMGCGSGVLSLVLADRYESVLGVDVNPRAVALSRLNAALNGLTNVTFREGDMFEPAEGRFSRIVFNSPTNEEGNEFVDLLEAGEPILETFFRNVPRKLESGGIVEVNLAMNDYPGDPFRERLADWLGLTENGLRVQIFTSQRRATESGGEWKRGWLVVAPGPVGLTEVEWPYHDRYEEDPDALLDGTDRLLRG
notes: full length, N-terminal His6 tag (pET28a), initiator Met lost, tag kept; E. coli BL21(DE3)
As to B1, in series [1], the Km came out at 34 ± 3.8 µM and the kcat came to 1.93 ± 0.1 s⁻¹.
